Measured values published in PMC12892976, “Alkylation-based optimization of antifungal FPPS inhibitors yields a potent, broad-spectrum lipophilic zoledronate derivative” (mBio, 2025).
In brackets after ≈: the same amount, converted by molar mass.

Assays:
[1] = system: Candida auris; assay: checkerboard drug interaction (FICI, MICc); type: cell-based;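 note: simplified diagonal checkerboard screen pairing antifungals with FPPS inhibitors, with FICI computed under the Loewe additivity model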
Protocol: (§2) Drug interactions between antifungals and FPPS inhibitors were investigated using a simplified checkerboard diagonal screening method ([45]). […] FICIs were determined according to the Loewe additivity model ([17]).

[2] = system: Epidermophyton floccosum; assay: checkerboard drug interaction (FICI, MICc);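 note: simplified diagonal checkerboard screen pairing antifungals with FPPS inhibitors, FICI calculated under the Loewe additivity model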
Protocol: as §2

[3] = system: Scedosporium apiospermum; assay: MIC broth microdilution (CLSI); type: cell-based; conditions: Scedosporium apiospermum 04-16-022-2268
Protocol: (§3) Antifungal susceptibility was determined by broth microdilution according to the CLSI guidelines described in M27-Ed4 ([16]).

[4] = system: Cryptococcus tetragattii; assay: checkerboard drug interaction (FICI, MICc); type: cell-based;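 note: simplified diagonal checkerboard screen pairing antifungals with FPPS inhibitors, with FICI calculated under the Loewe additivity model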
Protocol: as §2

[5] = system: Rhizopus oryzae; assay: checkerboard drug interaction (FICI, MICc); type: cell-based;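 note: simplified diagonal checkerboard screen pairing antifungals with FPPS inhibitors, FICI calculated under the Loewe additivity model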
Protocol: as §2

[6] = system: Lomentospora prolificans; assay: MIC broth microdilution (CLSI); type: cell-based; conditions: Lomentospora prolificans 80-16-101-2445
Protocol: as §3

[7] = system: Trichophyton soudanense; assay: checkerboard drug interaction (FICI, MICc); type: cell-based;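 note: simplified diagonal checkerboard screen pairing antifungals with FPPS inhibitors, FICI computed under the Loewe additivity model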
Protocol: as §2

[8] = system: Candida tropicalis; assay: checkerboard drug interaction (FICI, MICc); type: cell-based;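 note: simplified diagonal checkerboard screen of antifungal plus FPPS inhibitor combinations, with FICI computed by the Loewe additivity model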
Protocol: as §2

[9] = system: Candida parapsilosis; assay: MIC broth microdilution (CLSI); type: cell-based; conditions: Candida parapsilosis ATCC 22018
Protocol: Antifungal susceptibility was determined by broth microdilution according to the CLSI guidelines described in M27-Ed4 ([16]). […] MFC was determined by back-plating drug-treated cultures from MIC broths onto SDA plates. The MFC was defined as the lowest concentration from which no colonies could be cultured.

[10] = system: Aspergillus frankstonensis; assay: checkerboard drug interaction (FICI, MICc);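 note: simplified diagonal checkerboard screen pairing antifungals with FPPS inhibitors, FICI calculated using the Loewe additivity model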
Protocol: as §2

[11] = system: Fusarium solani; assay: MIC broth microdilution (CLSI); conditions: Fusarium solani 04-16-056-1862
Protocol: as §3

[12] = system: Candida dubliniensis; assay: MIC broth microdilution (CLSI); type: cell-based; conditions: Candida dubliniensis M230642
Protocol: as §3

[13] = system: Cryptococcus gattii; assay: MIC broth microdilution (CLSI); type: cell-based; conditions: Cryptococcus gattii PNG27
Protocol: as §3

[14] = system: Lomentospora prolificans; assay: checkerboard drug interaction (FICI, MICc);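 note: simplified diagonal checkerboard screen pairing antifungals with FPPS inhibitors, FICI calculated under the Loewe additivity model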
Protocol: as §2

[15] = system: Fusarium oxysporum; assay: MIC broth microdilution (CLSI); type: cell-based; conditions: Fusarium oxysporum 07-200-3012
Protocol: as §3

[16] = system: Cryptococcus deneoformans; assay: checkerboard drug interaction (FICI, MICc); type: cell-based;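 note: simplified diagonal checkerboard screen pairing antifungals with FPPS inhibitors, FICI calculated under the Loewe additivity model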
Protocol: as §2

[17] = system: Trichophyton interdigitale; assay: checkerboard drug interaction (FICI, MICc);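 note: simplified diagonal checkerboard screen pairing antifungals with FPPS inhibitors, FICI values calculated under the Loewe additivity model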
Protocol: as §2

[18] = system: Rhizopus oryzae; assay: MIC broth microdilution (CLSI); type: cell-based; conditions: Rhizopus oryzae 04-14-364-1703
Protocol: as §3

[19] = system: Trichophyton tonsurans; assay: MIC broth microdilution (CLSI); conditions: Trichophyton tonsurans R-168
Protocol: as §3

[20] = system: Mucor circinelloides; assay: checkerboard drug interaction (FICI, MICc); type: cell-based
Protocol: as §2

[21] = system: Aspergillus lentulus; assay: MIC broth microdilution (CLSI); type: cell-based; conditions: Aspergillus lentulus DTO 341-G7
Protocol: as §3

[22] = system: Aspergillus flavus biofilms; assay: biofilm XTT reduction assay (SIC80, SFICI); type: cell-based
Text: (§1) […]. […] […].

[23] = system: Aspergillus fumigatus biofilms; assay: biofilm XTT reduction assay (SIC80, SFICI); type: cell-based
Text: as §1

[24] = system: Candida glabrata biofilms; assay: biofilm XTT reduction assay (SIC80, SFICI); type: cell-based
Text: as §1

[25] = system: Candida albicans biofilms; assay: biofilm XTT reduction assay (SIC80, SFICI); conditions: agent alone, Candida albicans SC5314
Protocol: (§4) Biofilms of Cryptococcus were seeded in DMEM, and all other species were seeded in RPMI-1640.

[26] = system: Saccharomyces cerevisiae biofilms; assay: biofilm XTT reduction assay (SIC80, SFICI); type: cell-based; conditions: FLC:10-ZOL combination, Saccharomyces cerevisiae
Protocol: as §4

[27] = system: Trichophyton rubrum biofilms; assay: biofilm XTT reduction assay (SIC80, SFICI); type: cell-based; conditions: biofilm, agent alone; Trichophyton rubrum 213
Protocol: as §4

Row | SMILES | antifungal MICc ([1]; in combination with 10-ZOL) | antifungal MICc ([1]; in combination with ZOL) | antifungal MICc ([2]; in combination with 10-ZOL) | antifungal MICc ([4]; in combination with 10-ZOL) | antifungal MICc ([4]; in combination with ZOL) | antifungal MICc ([5]; in combination with 10-ZOL) | antifungal MICc ([7]; in combination with 10-ZOL) | antifungal MICc ([7]; in combination with ZOL) | antifungal MICc ([8]; in combination with 10-ZOL) | antifungal MICc ([8]; in combination with ZOL) | MIC / MEC [9] | antifungal MICc ([10]; in combination with 10-ZOL) | MIC / MEC [12] | MIC / MEC [13] | antifungal MICc ([14]; in combination with ZOL) | antifungal MICc ([16]; in combination with 10-ZOL) | antifungal MICc ([16]; in combination with ZOL) | antifungal MICc ([17]; in combination with 10-ZOL) | antifungal MICc ([20]; in combination with 10-ZOL) | antifungal MICc ([20]; in combination with ZOL) | also measured
1 | Nc1nc(=O)[nH]cc1F [5FC, 5-flucytosine] | 2 | 1 | 32 | 0.5 | 0.5 | 512 | 64 | 64 | 0.5 | 0.125 | 0.5 µg/mL (≈ 3.87 µM) | 256 | 0.25 µg/mL (≈ 1.94 µM) | 0.5 µg/mL (≈ 3.87 µM) | 256 | 0.25 | 0.5 | 64 | 512 | 512 | antifungal MICc ([2]; in combination with ZOL): 32; MIC / MEC [3]: >64 µg/mL; antifungal MICc ([5]; in combination with ZOL): 256; MIC / MEC [6]: >64 µg/mL; antifungal MICc ([10]; in combination with ZOL): 256; MIC / MEC [11]: >64 µg/mL; antifungal MICc ([14]; in combination with 10-ZOL): 256; MIC / MEC [15]: >64 µg/mL; antifungal MICc ([17]; in combination with ZOL): 128; MIC / MEC [18]: >64 µg/mL; MIC / MEC [19]: 64 µg/mL (≈ 496 µM); MIC / MEC [21]: >64 µg/mL
2 | C[C@@H]1[C@H](O)[C@@H](C)/C=C/C=C/C=C/C=C/C=C/C=C/C=C/[C@H](O[C@@H]2O[C@H](C)[C@@H](O)[C@H](N)[C@@H]2O)C[C@@H]2O[C@](O)(C[C@@H](O)C[C@@H](O)[C@H](O)CC[C@@H](O)C[C@@H](O)CC(=O)O[C@H]1C)C[C@H](O)[C@H]2C(=O)O [AMB, amphotericin B] | 1 | 2 | 0.5 | 0.25 | 0.125 | 0.13 | 0.25 | 0.5 | 0.5 | 1 | 0.5 µg/mL (≈ 0.541 µM) | 1 | 0.25 µg/mL (≈ 0.271 µM) | 0.25 µg/mL (≈ 0.271 µM) | 4 | 0.125 | 0.125 | 0.25 | 0.25 | 0.25 | antifungal MICc ([2]; in combination with ZOL): 0.25; MIC / MEC [3]: 8 µg/mL (≈ 8.66 µM); antifungal MICc ([5]; in combination with ZOL): 0.13; MIC / MEC [6]: 16 µg/mL (≈ 17.3 µM); antifungal MICc ([10]; in combination with ZOL): 2; MIC / MEC [11]: 0.5 µg/mL (≈ 0.541 µM); antifungal MICc ([14]; in combination with 10-ZOL): 4; MIC / MEC [15]: 1 µg/mL (≈ 1.08 µM); antifungal MICc ([17]; in combination with ZOL): 1; MIC / MEC [18]: 0.13 µg/mL (≈ 0.141 µM); MIC / MEC [19]: 0.13 µg/mL (≈ 0.141 µM); MIC / MEC [21]: 4 µg/mL (≈ 4.33 µM)
3 | CC[C@H](C)C[C@H](C)CCCCCCCCC(=O)N[C@H]1C[C@@H](O)[C@@H](NCCN)NC(=O)[C@@H]2[C@@H](O)CCN2C(=O)[C@H]([C@H](O)CCN)NC(=O)[C@H]([C@H](O)[C@@H](O)c2ccc(O)cc2)NC(=O)[C@@H]2C[C@@H](O)CN2C(=O)[C@H]([C@@H](C)O)NC1=O [CAS, caspofungin] | 0.5 | 4 | 0.125 | 1 | 16 | 128 | 0.5 | 1 | 0.25 | 0.02 | 1 µg/mL (≈ 0.915 µM) | 0.125 | 0.06 µg/mL (≈ 0.0549 µM) | 8 µg/mL (≈ 7.32 µM) | 64 | 2 | 8 | 0.5 | 128 | 16 | antifungal MICc ([2]; in combination with ZOL): 0.25; MIC / MEC [3]: 16 µg/mL (≈ 14.6 µM); antifungal MICc ([5]; in combination with ZOL): 4; MIC / MEC [6]: >16 µg/mL; antifungal MICc ([10]; in combination with ZOL): 0.5; MIC / MEC [11]: 16 µg/mL (≈ 14.6 µM); antifungal MICc ([14]; in combination with 10-ZOL): 128; MIC / MEC [15]: >16 µg/mL; antifungal MICc ([17]; in combination with ZOL): 0.25; MIC / MEC [18]: >16 µg/mL; MIC / MEC [19]: 0.5 µg/mL (≈ 0.457 µM); MIC / MEC [21]: 4 µg/mL (≈ 3.66 µM)
4 | OC(Cn1cncn1)(Cn1cncn1)c1ccc(F)cc1F [FLC, fluconazole] | 64 | 32 | 32 | 2 | 1 | 32 | 4 | 64 | 1 | 2 | 2 µg/mL (≈ 6.53 µM) | 64 | 0.125 µg/mL (≈ 0.408 µM) | 2 µg/mL (≈ 6.53 µM) | 512 | 0.25 | 0.125 | 32 | 32 | 32 | SICc ([22]; FLC:10-ZOL combination, Aspergillus flavus): 512 µg/mL; SIC80 ([22]; agent alone, Aspergillus flavus ATCC 204304): 1,024 µg/mL; SICc ([23]; FLC:10-ZOL combination, Aspergillus fumigatus): 512 µg/mL; SIC80 ([23]; agent alone, Aspergillus fumigatus ATCC 204305): >2,048 µg/mL; SICc ([24]; FLC:10-ZOL combination, Candida glabrata): 512 µg/mL; SIC80 ([24]; agent alone, Candida glabrata CBS138): >2,048 µg/mL; SIC80 [25]: 512 µg/mL; SICc [26]: 64 µg/mL; SIC80 [27]: 2,048 µg/mL
5 | C[C@@H](c1ncncc1F)[C@](O)(Cn1cncn1)c1ccc(F)cc1F [VOR] | 0.25 | 1 | 0.032 | 0.063 | 0.125 | 8 | 0.063 | 0.03125 | 0.032 | 0.0625 | 0.13 µg/mL (≈ 0.372 µM) | 4 | 0.06 µg/mL (≈ 0.172 µM) | 0.06 µg/mL (≈ 0.172 µM) | 16 | 0.063 | 0.0625 | 0.063 | 4 | 4 | antifungal MICc ([2]; in combination with ZOL): 0.25; MIC / MEC [3]: 1 µg/mL (≈ 2.86 µM); antifungal MICc ([5]; in combination with ZOL): 8; MIC / MEC [6]: 16 µg/mL (≈ 45.8 µM); antifungal MICc ([10]; in combination with ZOL): 2; MIC / MEC [11]: 1 µg/mL (≈ 2.86 µM); antifungal MICc ([14]; in combination with 10-ZOL): 2; MIC / MEC [15]: 4 µg/mL (≈ 11.5 µM); antifungal MICc ([17]; in combination with ZOL): 0.0625; MIC / MEC [18]: 16 µg/mL (≈ 45.8 µM); MIC / MEC [19]: 0.13 µg/mL (≈ 0.372 µM); MIC / MEC [21]: 4 µg/mL (≈ 11.5 µM)
